System: TGFβ1-induced fibulin-1 ECM deposition in primary human lung IPF-fibroblasts (phLFs)
Assay: Assessing N23P activity in inhibiting ECM deposition in IPF-fibroblasts (fibulin-1 MFI)
Format: cell-based
Settings: Homo sapiens, 72 h, 10 μM, TGFβ1 1 ng/ml, MFI, one or two different IPF-phLFs (n=1-2)
Procedure: phLFs were cultured in DMEM F-12 medium with 20% fetal bovine serum (FBS) and antibiotic supplement as mentioned above. Cells were seeded with 6000 cells/well in 384-well CellCarrier plates (Perkin Elmer, Cat #6007550). Following overnight incubation, cells were starved in serum-reduced medium (1% FBS with 0.1 mM 2-phosphoascorbate (Sigma, Cat #49752)) for 24 h. Afterwards, cells were treated with TGFβ1 (1 ng/ml) or vehicle, and additionally small molecules or appropriate vehicle controls were added. After 72 h of incubation, medium was changed for starving medium with 1 μg/mL AlexaFluor-488 fluorophore conjugated anti-collagen-type-5 antibodies (SantaCruz, Clone C-5, Cat #sc-166155 AF488), 0.66 μg/mL AlexaFluor-555 fluorophore conjugated anti-collagen-type-1 antibodies (Rockland, Cat #600-401-103-0.1), and 1 μg/mL AlexaFluor-637 fluorophore conjugated anti-fibulin 1 antibodies (SantaCruz, Clone C-5, Cat #sc-25281 AF647) and 1 μg/mL Hoechst H33342 (Sigma). Fluorescenceconjugation of the collagen type 1 antibody was done by using the AlexaFluor-555 Protein Labeling Kit (Invitrogen, Cat #A20174) according to manufacturer's instructions. Labeling efficacy was controlled by photometrical means.
Following four hours of incubation, cells were washed three times with PBS and fixed with paraformaldehyde (PFA). For automated liquid handling in 384 well plates, an INTEGRA Assist Plus (INTEGRA, Zizers, Switzerland) equipped with an INTEGRA Viaflo 1I pipette (INTEGRA, Zizers, Switzerland, Cat #4642), 125 μL GripTips™ pipette tips (INTEGRA, Zizers, Switzerland, Cat #6464) and sterile reagent reservoirs (INTEGRA, Cat #4311) were applied. All automated pipetting steps with the INTEGRA Assist Plus were performed at 9.5 μL/s in order to ensure proper integrity and attachment of the deposited ECM to the culturing surface within the wells of the 384-well plates. During cell seeding the automated liquid handling was performed at 89.3 μL/s. Removal of liquids from the well-plates was done by manually inverting the plates.
Following fixation, the automated imaging was achieved by using aconfocal laser scanning microscope (LSM710, Zeiss) with automated focus detection for three-dimensional image acquisition (1024 px×1024 px×9 px which equals a dimension of 1417 μm×1417 μm×16 μm). For post-acquisition analysis images were imported into IMARIS software (Bitplane) and volume detection or alternatively quantification of the mean fluorescence intensity, as well as Hoechst-stained cell nuclei were automatically counted by using Imaris' spot detection algorithm.
Cells were seeded with 6000 cells/well in 384-well CellCarrier plates. After overnight incubation, cells were starved in serum-reduced medium (1% FBS with 0.1 mM 2-phosphoascorbate for 24 h). Then, phLFs were treated with TGFβ1 (1 ng/ml) or vehicle, and incubated together with synthesized N23Ps (10 μM) or appropriate vehicle controls. After 72 h of incubation, medium was changed for starvation medium with 1 μg/mL AlexaFluor-637 fluorophore conjugated anti-fibulin 1 antibodies (SantaCruz, Clone C-5, Cat #sc-25281 AF647) and 1 μg/mL Hoechst H33342 (Sigma). Following four hours of incubation, cells were washed three times with PBS and fixed with paraformaldehyde (PFA). Following fixation, the automated imaging was achieved by using a confocal laser scanning microscope (LSM710, Zeiss) with automated focus detection for three-dimensional image acquisition (1024 px×1024 px×9 px which equals a dimension of 1417 μm×1417 μm×16 μm). For post-acquisition analysis images were imported into IMARIS software (Bitplane) and quantified for the mean fluorescence intensity, as well as Hoechst-stained cell nuclei were automatically counted by using Imaris' spot detection algorithm.
Assessment of ECM inhibition I: Mean fluorescence intensity (MFI) values represented the degree of fibulin-1 ECM deposition in three different IPF-phLFs (n=3). […]

| Structure (SMILES) | inhibition at 10 µM [%] |
| --- | --- |
| CCCCOc1c(NC(=O)/C=C/c2ccc3[nH]ccc3c2)ccc(F)c1F [Example 163, (E)-N-(2-butoxy-3,4-difluorophenyl)-3-(1H-indol-5-yl)acrylamide] | 20 to 60 |
| COc1ccc(/C=C/C(=O)Nc2ccccc2OCCC(F)(F)F)cc1 [Example 155, (E)-3-(4-methoxyphenyl)-N-(2-(3,3,3-trifluoropropoxy)phenyl)acrylamide] | 60 to 90 |
| CCCCOc1ccccc1NC(=O)/C(=C/c1ccc(OC)cc1)C(C)C [Example 82, (E)-N-(2-butoxyphenyl)-2-(4-methoxybenzylidene)-3-methylbutanamide] | 20 to 60 |
| C#CCCOc1ccccc1NC(=O)/C=C/c1ccc(OC)cc1 [Example 46, (E)-N-(2-(but-3-yn-1-yloxy)phenyl)-3-(4-methoxyphenyl)acrylamide] | 20 to 60 |
| C#CCOc1ccc(/C=C/C(=O)Nc2ccccc2OCCC2(C)N=N2)cc1 [Example 167, (E)-N-(2-(2-(3-methyl-3H-diazirin-3-yl)ethoxy)phenyl)-3-(4-(prop-2-yn-1-yloxy)phenyl)acrylamide] | 60 to 90 |
| CCCCOc1c(NC(=O)/C=C/c2ccc3sc(C)nc3c2)ccc(F)c1F [Example 162, (E)-N-(2-butoxy-3,4-difluorophenyl)-3-(2-methylbenzo[d]thiazol-5-yl)acrylamide] | 60 to 90 |
| C#CCCCOc1ccc(/C=C/C(=O)Nc2ccccc2OCCCC)cc1 [Example 83, (E)-N-(2-butoxyphenyl)-3-(4-(pent-4-yn-1-yloxy)phenyl)acrylamide] | > 90 |
| CCCCOc1ccccc1NC(=O)/C=C/c1ccc(S(C)(=O)=O)cc1 [Example 153, (E)-N-(2-butoxyphenyl)-3-(4-(methylsulfonyl)phenyl)acrylamide] | > 90 |
| CCCCOc1ccccc1NC(=O)/C=C/c1ccc2c(c1)CCC(C)(C)O2 [Example 63] | 20 to 60 |

Same assay, conditions: Homo sapiens, 72 h, 10 μM, TGFβ1 1 ng/ml, MFI, three different IPF-phLFs (n=3)

| Structure (SMILES) | inhibition at 10 µM [%] |
| --- | --- |
| COc1ccc(/C=C/C(=O)Nc2ccccc2Oc2ccc(Cl)cc2)cc1 [Example 39, (E)-N-(2-(4-chlorophenoxy)phenyl)-3-(4-methoxyphenyl)acrylamide] | 60 to 90 |
| CCCCOc1cc(Cl)ccc1NC(=O)/C=C/c1ccc(OC)cc1 [Example 21, (E)-N-(2-butoxy-4-chlorophenyl)-3-(4-methoxyphenyl)acrylamide] | 20 to 60 |
| CCCCOc1ccccc1NC(=O)/C=C/c1ccc(OCC(F)(F)F)cc1 [Example 2, (E)-N-(2-butoxyphenyl)-3-(4-(2,2,2-trifluoroethoxy)phenyl)acrylamide] | 60 to 90 |
| CCCCOc1ccccc1N(Cc1ccccc1)C(=O)/C=C/c1ccc(OC)cc1 [Example 75, (E)-N-benzyl-N-(2-butoxyphenyl)-3-(4-methoxyphenyl)acrylamide] | > 90 |
| CCCCOc1cccc(Cl)c1NC(=O)/C=C/c1ccc(OC)c(OC)c1 [Example 36, (E)-N-(2-butoxy-6-chlorophenyl)-3-(3,4-dimethoxyphenyl)acrylamide] | 60 to 90 |
| COc1ccc(/C=C/C(=O)Nc2ccccc2OCc2ccc(Cl)cc2)cc1 [Example 45, (E)-N-(2-((4-chlorobenzyl)oxy)phenyl)-3-(4-methoxyphenyl)acrylamide] | > 90 |
| CCCCOc1c(NC(=O)/C=C/c2ccc(OC)cc2)ccc(F)c1F [Example 13] | > 90 |
| C#CCCCOc1ccc(/C=C/C(=O)Nc2ccccc2OCCCC)cc1 [Example 83, (E)-N-(2-butoxyphenyl)-3-(4-(pent-4-yn-1-yloxy)phenyl)acrylamide] | > 90 |
| CCCCOc1ccccc1NC(=O)/C=C/c1cccc(OC)c1 [Example 7, (E)-N-(2-butoxyphenyl)-3-(3-methoxyphenyl)acrylamide] | 60 to 90 |
| COc1ccc(/C=C/C(=O)Nc2ccccc2OCCC2CC2)cc1 [Example 38, (E)-N-(2-(2-cyclopropylethoxy)phenyl)-3-(4-methoxyphenyl)acrylamide] | > 90 |
| COc1ccc(/C=C/C(=O)Nc2ccccc2Oc2ccccc2F)cc1 [Example 43, (E)-N-(2-(2-fluorophenoxy)phenyl)-3-(4-methoxyphenyl)acrylamide] | 60 to 90 |

Same assay, conditions: at 10 μM

| Structure (SMILES) | inhibition of TGFβ1-induced ECM deposition |
| --- | --- |
| COc1ccc(/C=C/C(=O)Nc2ccccc2C(=O)O)cc1OC [Tranilast, reference compound] | no inhibition |
